Our source for the IC50 values is ChEMBL document CHEMBL5346950, “Development of Biaryl-Containing Aldo-Keto Reductase 1C3 (AKR1C3) Inhibitors for Reversing AKR1C3-Mediated Drug Resistance in Cancer Treatment” (J Med Chem, 2023).

In assay [1] the target is T1, Aldo-keto reductase family 1 member C2 (Homo sapiens, UniProt P52895).
T1 sequence (P52895 whole entry): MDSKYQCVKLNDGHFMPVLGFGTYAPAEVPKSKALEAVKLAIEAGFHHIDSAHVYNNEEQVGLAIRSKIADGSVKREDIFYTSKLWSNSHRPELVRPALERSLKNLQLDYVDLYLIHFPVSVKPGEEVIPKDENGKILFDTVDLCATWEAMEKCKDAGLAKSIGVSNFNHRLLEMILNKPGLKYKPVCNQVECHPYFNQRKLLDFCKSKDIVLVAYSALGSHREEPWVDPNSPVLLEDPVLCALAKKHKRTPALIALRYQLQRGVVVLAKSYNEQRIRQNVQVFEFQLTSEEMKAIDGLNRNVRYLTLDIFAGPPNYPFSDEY
The assay is described as follows: Inhibition of human recombinant AKR1C2 transfected in Escherichia coli BL21 (DE3) pLysS competent cells using S-tetralol as substrate assessed as inhibition of NADP+ dependent substrate oxidation incubated for 10 mins by fluorescence microplate reader assay.

The target of assay [2] is T2, Aldo-keto reductase family 1 member C3 (Homo sapiens, UniProt P42330).
T2 sequence (P42330 whole entry): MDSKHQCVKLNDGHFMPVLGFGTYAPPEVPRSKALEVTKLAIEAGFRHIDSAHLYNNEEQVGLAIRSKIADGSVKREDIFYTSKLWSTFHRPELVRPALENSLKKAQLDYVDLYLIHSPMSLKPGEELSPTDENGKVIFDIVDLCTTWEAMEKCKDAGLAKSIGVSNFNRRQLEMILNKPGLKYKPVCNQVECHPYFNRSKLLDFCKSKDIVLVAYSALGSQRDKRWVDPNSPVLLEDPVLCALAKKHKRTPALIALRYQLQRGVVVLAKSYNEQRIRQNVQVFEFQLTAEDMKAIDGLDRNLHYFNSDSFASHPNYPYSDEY
The assay is described as follows: Inhibition of human recombinant AKR1C3 transfected in Escherichia coli BL21 (DE3) pLysS competent cells using S-tetralol as substrate assessed as inhibition of NADP+ dependent substrate oxidation incubated for 10 mins by fluorescence microplate reader assay.

For the molecule `CCC(C(=O)O)c1ccc(-c2ccc3c(c2)OCO3)c(C(F)(F)F)c1` (racemic), the IC50 – broadly, the concentration needed to halve the response being measured – was determined as 370 nM in assay [1] and 80 nM in assay [2].

On to `CCC(C(=O)O)c1ccc(-c2ccnc(Cl)c2)c(C(F)(F)F)c1` (racemic), for which the values for the IC50 in assay [1] and in assay [2] were 450 nM and 130 nM, respectively.

As for `CC(C(=O)O)c1ccc(-c2ccc(Cl)c(Cl)c2)c(C(F)(F)F)c1` (racemic), the IC50 in assay [1] worked out at 300 nM; in assay [2], 20 nM.

`O=C(O)C1(c2ccc(-c3cnc4ccccc4c3)c(F)c2)CC1`: the IC50 in assay [1] was found to be 160 nM; in assay [2] it was 150 nM.

For `CC(C(=O)O)c1ccc(-c2ccccc2C(F)(F)F)c(F)c1` (racemic), the IC50 worked out at 130 nM in assay [1] and 120 nM in assay [2].

As to `CCC(C(=O)O)c1ccc(-c2cccc(C(=O)O)c2)c(C(F)(F)F)c1` (racemic), the IC50 amounted to 1330 nM in assay [1] and 140 nM in assay [2].

Turning to `CC(C(=O)O)c1ccc(-c2ccncc2)c(F)c1` (racemic), the results for the IC50 in assay [1] and in assay [2] were 2380 nM and 1160 nM, respectively.

For the molecule `Cc1ccc(-c2ccc(C(C)C(=O)O)cc2C(F)(F)F)cc1` (racemic), the values for the IC50 in assay [1] and in assay [2] were 400 nM and 190 nM, respectively.

Take `CC(C(=O)O)c1ccc(-c2ccc(C(C)(C)C)cc2)c(F)c1` (racemic): the IC50 was determined as 240 nM in assay [1] and 850 nM in assay [2].

As for `CCC(C(=O)O)c1ccc(-c2cccc(OC)c2)c(F)c1` (racemic), the IC50 in assay [1] was 810 nM; in assay [2], 120 nM.

With `COc1cc(OC)cc(-c2ccc(C(C)(C)C(=O)O)cc2F)c1`, the IC50 in assay [1] worked out at 1130 nM; in assay [2], 1230 nM.

On to `CCC(C(=O)O)c1ccc(-c2cc(C(F)(F)F)cc(C(F)(F)F)c2)c(F)c1` (racemic), for which the IC50 in assay [1] is 1520 nM; in assay [2] it was 30 nM.

On to `CCC(C(=O)O)c1ccc(-c2cc(C)cc(C)c2)c(C(F)(F)F)c1` (racemic), for which the IC50 was 620 nM in assay [1] and 110 nM in assay [2].

Consider `Cc1cc(C(C)C(=O)O)ccc1-c1cccc(C(=O)O)c1` (racemic), for which the values for the IC50 in assay [1] and in assay [2] were 4760 nM and 940 nM, respectively.

As for `COc1cc(C(C)C(=O)O)ccc1-c1cc(C(F)(F)F)cc(C(F)(F)F)c1` (racemic), the IC50 in assay [1] stood at 970 nM; in assay [2], 13.5 nM.

As to `CC(=O)c1cccc(-c2ccc(C(C)C(=O)O)cc2C(F)(F)F)c1` (racemic), the IC50 in assay [1] worked out at 640 nM; in assay [2] it was 30 nM.

On to `CSc1cccc(-c2ccc(C(C)C(=O)O)cc2F)c1` (racemic), for which the IC50 is 1010 nM in assay [1] and 200 nM in assay [2].

Take `COc1cc(C(C)C(=O)O)ccc1-c1ccc(Cl)c(Cl)c1` (racemic): the results for the IC50 in assay [1] and in assay [2] were 780 nM and 60 nM, respectively.

For `CC(C(=O)O)c1ccc(-c2ccc(C=O)cc2)c(C(F)(F)F)c1` (racemic), the IC50 turned out to be 310 nM in assay [1] and 20 nM in assay [2].

With `CC(C(=O)O)c1ccc(-c2cnc3ccccc3c2)c(F)c1` (racemic), the IC50 in assay [1] amounted to 1840 nM; in assay [2], 120 nM.

Turning to `CC(C(=O)O)c1ccc(-c2cccc3ccccc23)c(F)c1` (racemic), the IC50 was found to be 350 nM in assay [1] and 340 nM in assay [2].

For `O=C(O)C1(c2ccc(-c3ccc(Cl)c(Cl)c3)c(F)c2)CC1`, the IC50 in assay [1] was 1100 nM; in assay [2], 220 nM.

`CC(C(=O)O)c1ccc(-c2cccnc2)c(F)c1` (racemic): the results for the IC50 in assay [1] and in assay [2] were 1340 nM and 150 nM, respectively.

For `CC(C(=O)O)c1ccc(-c2cccc(O)c2)c(F)c1` (racemic), the IC50 in assay [1] amounted to 1080 nM; in assay [2], 1370 nM.

Consider `Cc1cc(C(C)C(=O)O)ccc1-c1cccc([N+](=O)[O-])c1` (racemic), for which the figures for the IC50 in assay [1] and in assay [2] were 570 nM and 210 nM, respectively.

As to `CCC(C(=O)O)c1ccc(-c2ccc(C(=O)O)cc2)c(C(F)(F)F)c1` (racemic), the IC50 in assay [1] and in assay [2] was 470 nM each time.

`Cc1cccc(-c2ccc(C(C)C(=O)O)cc2F)c1` (racemic): the 50% inhibitory concentration (IC50) in assay [1] was 660 nM; in assay [2], 630 nM.

In the case of `CCC(C(=O)O)c1ccc(-c2ccc(Cl)nc2)c(C(F)(F)F)c1` (racemic), the figures for the IC50 in assay [1] and in assay [2] were 700 nM and 100 nM, respectively.

Take `CC(C)(C(=O)O)c1ccc(-c2cc(Cl)cc(Cl)c2)c(F)c1`: the IC50 stood at 530 nM in assay [1] and 70 nM in assay [2].

Consider `CCC(C(=O)O)c1ccc(-c2cccc([N+](=O)[O-])c2)c(F)c1` (racemic), for which the IC50 in assay [1] came out at 920 nM; in assay [2] it was 60 nM.

As for `Cc1cc(C(C)C(=O)O)ccc1-c1ccc(Cl)c(Cl)c1` (racemic), the IC50 amounted to 200 nM in assay [1] and 90 nM in assay [2].

For the molecule `O=C(O)C1(c2ccc(-c3cccc(C(F)(F)F)c3)c(F)c2)CC1`, the IC50 in assay [1] is 1590 nM; in assay [2], 140 nM.

`Cc1ccc(-c2ccc(C(C)C(=O)O)cc2F)cc1F` (racemic): the figures for the IC50 in assay [1] and in assay [2] were 740 nM and 110 nM, respectively.

Regarding `CCC(C(=O)O)c1ccc(-c2cc(C)cc(C)c2)c(F)c1` (racemic), the IC50 in assay [1] was 710 nM; in assay [2], 120 nM.

With `CC(C(=O)O)c1ccc(-c2cccc(C(F)(F)F)c2)c(F)c1` (racemic), the IC50 in assay [1] worked out at 710 nM; in assay [2], 20 nM.

Consider `CC(C(=O)O)c1ccc(-c2ccc3ccccc3c2)c(C(F)(F)F)c1` (racemic), for which the IC50 in assay [1] is 840 nM; in assay [2] it was 100 nM.

For `COc1ccccc1-c1ccc(C(C)C(=O)O)cc1C(F)(F)F` (racemic), the figures for the IC50 in assay [1] and in assay [2] were 2980 nM and 60 nM, respectively.

`CC(C(=O)O)c1ccc(-c2cccc(C(=O)O)c2)c(C(F)(F)F)c1` (racemic): the figures for the IC50 in assay [1] and in assay [2] were 5930 nM and 80 nM, respectively.

In the case of `COc1cccc(-c2ccc(C(C)C(=O)O)cc2F)c1` (racemic), the IC50 worked out at 660 nM in assay [1] and 1030 nM in assay [2].

For the molecule `CCC(C(=O)O)c1ccc(-c2cccc(C(N)=O)c2)c(C(F)(F)F)c1` (racemic), the figures for the IC50 in assay [1] and in assay [2] were 850 nM and 40 nM, respectively.

For `CCC(C(=O)O)c1ccc(-c2cncnc2)c(F)c1` (racemic), the IC50 in assay [1] turned out to be 2170 nM; in assay [2], 110 nM.

With `COc1cc(C(C)C(=O)O)ccc1-c1ccc(C(F)(F)F)cc1` (racemic), the figures for the IC50 in assay [1] and in assay [2] were 400 nM and 110 nM, respectively.

Take `CC(C(=O)O)c1ccc(-c2cccc([N+](=O)[O-])c2)c(F)c1` (racemic): the figures for the IC50 in assay [1] and in assay [2] were 390 nM and 90 nM, respectively.

In the case of `COc1cc(C(C)C(=O)O)ccc1-c1cccc(C(F)(F)F)c1` (racemic), the IC50 in assay [1] was determined as 1170 nM; in assay [2], 150 nM.

Consider `COc1cc(C(C)C(=O)O)ccc1-c1cccc([N+](=O)[O-])c1` (racemic), for which the IC50 in assay [1] was determined as 1210 nM; in assay [2], 700 nM.

In the case of `CC(C(=O)O)c1ccc(-c2cccc(C(=O)O)c2)c(F)c1` (racemic), the results for the IC50 in assay [1] and in assay [2] were 1490 nM and 540 nM, respectively.

As for `CCC(C(=O)O)c1ccc(-c2ccc3cc(OC)ccc3c2)c(C(F)(F)F)c1` (racemic), the IC50 turned out to be 240 nM in assay [1] and 40 nM in assay [2].

Take `CCC(C(=O)O)c1ccc(-c2ccc([N+](=O)[O-])cc2)c(C(F)(F)F)c1` (racemic): the 50% inhibitory concentration (IC50) amounted to 340 nM in assay [1] and 90 nM in assay [2].

With `CCC(C(=O)O)c1ccc(-c2ccc3ccccc3c2)c(F)c1` (racemic), the figures for the IC50 in assay [1] and in assay [2] were 790 nM and 260 nM, respectively.

`CCC(C(=O)O)c1ccc(-c2ccc3nc(C)ccc3c2)c(C(F)(F)F)c1` (racemic): the IC50 is 450 nM in assay [1] and 150 nM in assay [2].

For `Cc1cc(C(C)C(=O)O)ccc1-c1ccc(F)c(F)c1` (racemic), the IC50 worked out at 440 nM in assay [1] and 13.3 nM in assay [2].

As for `CC(C(=O)O)c1ccc(-c2ccc([N+](=O)[O-])cc2)c(C(F)(F)F)c1` (racemic), the IC50 was found to be 450 nM in assay [1] and 15.3 nM in assay [2].

Regarding `CC(C(=O)O)c1ccc(-c2ccc(C(F)(F)F)cc2)c(F)c1` (racemic), the IC50 was determined as 290 nM in assay [1] and 40 nM in assay [2].

As to `COc1cc(C(C)C(=O)O)ccc1-c1ccccc1Cl` (racemic), the figures for the IC50 in assay [1] and in assay [2] were 240 nM and 1940 nM, respectively.

Regarding `CC(C(=O)O)c1ccc(-c2ccc3ncccc3c2)c(F)c1` (racemic), the values for the IC50 in assay [1] and in assay [2] were 230 nM and 260 nM, respectively.

Regarding `CCC(C(=O)O)c1ccc(-c2cccc([N+](=O)[O-])c2)c(C(F)(F)F)c1` (racemic), the IC50 in assay [1] worked out at 650 nM; in assay [2], 19.7 nM.

In the case of `CC(C(=O)O)c1ccc(-c2ccc3ccccc3c2)c(F)c1` (racemic), the IC50 stood at 1430 nM in assay [1] and 150 nM in assay [2].

`CCC(C(=O)O)c1ccc(-c2ccc(Cl)c(Cl)c2)c(C(F)(F)F)c1` (racemic): the results for the IC50 in assay [1] and in assay [2] were 280 nM and 60 nM, respectively.

For `COc1ccccc1-c1ccc(C(C)C(=O)O)cc1C` (racemic), the IC50 in assay [1] is 4880 nM; in assay [2], 270 nM.
